Assay results: PMC5733301, “Antitubercular Nitroimidazoles Revisited: Synthesis and Activity of the Authentic 3-Nitro Isomer of Pretomanid” (ACS Medicinal Chemistry Letters, 2017)
In brackets after ≈: the same amount, converted by molar mass.

Columns and labels:
[1] = design: method as in PMID 23733467; conditions: MDR-TB patients; ref [14]; cited from earlier work
VERO cells = assay: Cytotoxicity against mammalian cells (VERO), 72 h assay; assay type: cell-based; conditions: Chlorocebus sabaeus, cytotoxicity toward VERO cells
M. tb (strain H37Rv) [2] = tested on: M. tb (strain H37Rv); design: method as in PMID 25781074; conditions: aerobic, growth inhibition ≥90%, ref [15]; cited from earlier work
M. tb (strain H37Rv) [3] = tested on: M. tb (strain H37Rv); design: method as in PMID 25781074; conditions: hypoxic, growth inhibition ≥90%, ref [15]; cited from earlier work
M. tb (strain H37Rv) [4] = assay: MABA, MIC against M. tb under aerobic conditions; assay type: cell-based, Mycobacterium tuberculosis
M. tb (strain H37Rv) [5] = assay: LORA, MIC against M. tb under hypoxic conditions (nonreplicating persistent bacteria); assay type: cell-based, Mycobacterium tuberculosis; conditions: vs 4 and 3
M. tb [6] = tested on: M. tb; design: method as in PMID 19209889; conditions: ref [22]; cited from earlier work
M. tb [7] = tested on: M. tb; design: method as in PMID 19209889; conditions: ref [22]; cited from earlier work; remark: listed apart in the source
[8] = tested on: Mycobacterium tuberculosis (M. tb); design: method as in PMID 19209889; conditions: vs 4; ref [22]; cited from earlier work

SMILES: Cc1ncc([N+](=O)[O-])n1CCO [MET, metronidazole]
- neurotoxicity in long-term use [1]: too neurotoxic for long-term use

SMILES: O=[N+]([O-])c1cn2c(n1)OC[C@@H](OCc1ccc(OC(F)(F)F)cc1)C2 [compound 4, pretomanid]
- IC50 (VERO cells): > 128 µM
- MIC MABA (M. tb (strain H37Rv) [2]): 0.50 ± 0.30 µM (≈ 0.18 µg/mL)
- MIC LORA (M. tb (strain H37Rv) [3]): 2.6 ± 1.4 µM (≈ 0.934 µg/mL)

SMILES: O=[N+]([O-])c1cnc2n1C[C@H](OCc1ccc(OC(F)(F)F)cc1)CO2 [compound 8]
- loss in activity in comparison to its 2-nitro isomer, 4 (M. tb (strain H37Rv) [4]; M. tb MIC vs 4): > 256 fold

SMILES: Cc1cc(CO[C@@H]2COc3nc([N+](=O)[O-])cn3C2)ccc1OC(F)(F)F [compound 9]
- more active than both 4 and moxifloxacin (6) in MABA (M. tb (strain H37Rv) [4]; MABA, vs 4 and 6): seven- to eight-fold
- more potent than pretomanid in the aerobic assay (M. tb (strain H37Rv) [4]; MABA, vs pretomanid): eight-fold
- better than both 4 and linezolid (3) in LORA (M. tb (strain H37Rv) [5]): about three-fold

SMILES: O=[N+]([O-])c1cn2c(n1)O[C@H](COCc1ccc(OC(F)(F)F)cc1)C2 [compound 20]
- aerobic MIC99 (M. tb [6]): 4 to 8 µM
- anaerobic MIC90 (M. tb [7]): 31 µM
- less active than 4 [8]: 5- to 10 fold
